Results reported in the supplement of paper PMC7224384.

Tests used:
MDA-MB-453 [1] = assay: drug sensitivity score (DSS), single agent (DSS (weighted AUC score)); higher = more sensitive (stronger viability decrease); extreme values may be limits of the assay; details: BLU9931 0 nM; 72 h
Outline: (§1)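 Each 384-well plate held compounds from the FIMM Oncology set, predispensed in singlicate at five 10-fold dilutions spanning a 10,000-fold range, and each well then received 2000 MDA-MB-453 cells in medium with or without an FGFR4 inhibitor at 100 nM final. Plates stayed at 37 °C, 5% CO2 for 72 h, after which cellular ATP was measured with CellTiterGlo 2.0. Readings were converted per plate into percent viability against control wells, and the drug sensitivity score was taken as a weighted area under a four-parameter logistic fit.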

MDA-MB-453 [2] = assay: drug sensitivity score (DSS), in combination with BLU9931 (DSS (weighted AUC score)); higher = more sensitive (stronger viability decrease); extreme values may be limits of the assay; details: BLU9931 100 nM; 72 h
Outline: as §1

Row | SMILES | drug sensitivity score (MDA-MB-453 [1]) | drug sensitivity score (MDA-MB-453 [2])
1 | NCCNc1ccc(NCCN)c2c1C(=O)c1ccncc1C2=O [Pixantrone] | 1 | 1
2 | COc1cc(Nc2ncc(F)c(Nc3ccc4c(n3)NC(=O)C(C)(C)O4)n2)cc(OC)c1OC [Tamatinib] | 0 | 0
3 | Cc1nc(Nc2n[nH]c3c2CN(C(=O)N[C@H](CN(C)C)c2ccccc2)C3(C)C)c2sccc2n1 | 11.4 | 8.7
4 | CCN1CCN(Cc2ccc(Nc3ncc(F)c(-c4cc(F)c5nc(C)n(C(C)C)c5c4)n3)nc2)CC1 [Abemaciclib] | 4.1 | 7.8
5 | O=C1Cc2cc(C(=O)NC3C[C@H]4CC[C@@H](C3)N4S(=O)(=O)CC3CCN(CCCC(F)(F)F)CC3)c(Cl)cc2N1 (stereo not given in full) | 0 | 0
6 | COc1cc2ncnc(Nc3cccc(Cl)c3F)c2cc1OC(=O)N1CCN(C)C[C@H]1C [AZD3759] | 0 | 0.9
7 | CNc1nc(-c2ccc3c(N)n[nH]c3c2)cc(N2C[C@@H](C(=O)NC3CCCCC3)CC[C@H]2C)n1 | 4.8 | 3.9
8 | Cc1sc2c(c1C)C(c1ccc(Cl)cc1)=N[C@@H](CC(=O)Nc1ccc(OCCOCCOCCOCCNc3cccc4c3C(=O)N(C3CCC(=O)NC3=O)C4=O)cc1)c1nnc(C)n1-2 (stereo not given in full) [ARV-825] | 10.1 | 10.7
9 | COc1ccc(C[C@H](NC(=O)[C@H](C)NC(=O)CN2CCOCC2)C(=O)N[C@@H](Cc2ccccc2)C(=O)C2(C)CO2)cc1 (stereo in doubt) [ONX-0914] | 14.7 | 13.8
10 | CNCc1ccc(-c2[nH]c3cc(F)cc4c3c2CCNC4=O)cc1 [Rucaparib] | 0.6 | 0
11 | COc1cc(Nc2ncc3c(n2)-c2ccc(Cl)cc2C(c2c(F)cccc2OC)=NC3)ccc1C(=O)O [Alisertib] | 0 | 1.7
12 | COc1ccc(-c2nc(N3CCOCC3)c3sc(CN(C)c4ncc(C(=O)NO)cn4)cc3n2)cn1 [CUDC-907] | 38.8 | 40
13 | CN(C)C/C=C/C(=O)Nc1cc2c(Nc3ccc(F)c(Cl)c3)ncnc2cc1O[C@H]1CCOC1 [Afatinib] | 6.2 | 10.1
14 | Clc1ccccc1C(c1ccccc1)(c1ccccc1)n1cccn1 [TRAM-34] | 1.6 | 0.6
15 | Oc1nc(-c2ccc(C(F)(F)F)cc2)nc2c1CSCC2 [XAV-939] | 0.2 | 0.1
16 | Nc1cc(C(F)(F)F)c(-c2cc(N3CCOCC3)nc(N3CCOCC3)n2)cn1 [Buparlisib] | 11.3 | 11.9
17 | Cn1cc(CNCC2CCN(c3ncc(C(=O)NO)cn3)CC2)c2ccccc21 [Quisinostat] | 22.4 | 21.3
18 | Nc1cccc2c1CN(C1CCC(=O)NC1=O)C2=O (stereo not given) [Lenalidomide] | 0 | 0
19 | C=CC(=O)Nc1cccc(Nc2nc(Nc3ccc(N4CCN(C(C)=O)CC4)cc3OC)ncc2C(F)(F)F)c1 [Rociletinib] | 7.8 | 7.9
20 | CNS(=O)(=O)Nc1nccc(Cc2c(C)c3ccc(Oc4ncccn4)cc3oc2=O)c1F | 0.5 | 0.2

Row | SMILES | drug sensitivity score (MDA-MB-453 [1]) | drug sensitivity score (MDA-MB-453 [2])
21 | C=CC(=O)Nc1cc(Nc2nccc(-c3cn(C)c4ccccc34)n2)c(OC)cc1N(C)CCN(C)C [Osimertinib] | 8 | 10.4
22 | Cn1cncc1[C@@](N)(c1ccc(Cl)cc1)c1ccc2c(c1)c(-c1cccc(Cl)c1)cc(=O)n2C [Tipifarnib] | 8.3 | 4.1
23 | CNC(=O)c1ccccc1Nc1nc(Nc2ccc3c(c2OC)CCC[C@H](N2CCN(CCO)CC2)C3)ncc1Cl | 6.7 | 5.6
24 | CCn1c(-c2nonc2N)nc2c(C#CC(C)(C)O)ncc(OC[C@H]3CCCNC3)c21 | 13 | 15
25 | Cc1nc(C(=O)NCC(=O)O)c(O)c2ccc(Oc3ccccc3)cc12 [Roxadustat] | 0 | 0
26 | Cc1c(N)nc([C@H](CC(N)=O)NC[C@H](N)C(N)=O)nc1C(=O)N[C@H](C(=O)N[C@H](C)[C@@H](O)[C@H](C)C(=O)N[C@H](C(=O)NCCc1nc(-c2nc(C(=O)NCCC[S+](C)C)cs2)cs1)[C@@H](C)O)[C@@H](OC1OC(CO)C(O)C(O)C1OC1OC(CO)C(O)C(OC(N)=O)C1O)c1cnc[nH]1 (stereo not given in full) [Bleomycin] | 0 | 0
27 | CCN(c1cc(-c2ccc(CN3CCOCC3)cc2)cc(C(=O)NCc2c(C)cc(C)[nH]c2=O)c1C)C1CCOCC1 [Tazemetostat] | 2.1 | 0
28 | CCc1cc2c(cc1N1CCC(N3CCOCC3)CC1)C(C)(C)c1[nH]c3cc(C#N)ccc3c1C2=O [Alectinib] | 0.9 | 0
29 | O=C1CN2Cc3c(ccc(Cl)c3Cl)N=C2N1 [Anagrelide] | 0 | 0
30 | Cc1sc2c(c1C)C(c1ccc(Cl)cc1)=N[C@@H](CC(=O)Nc1ccc(O)cc1)c1nnc(C)n1-2 [Birabresib] | 15.2 | 15.2
31 | CC[C@H](C)C(=O)O[C@H]1C[C@H](O)C=C2C=C[C@H](C)[C@H](CC[C@@H](O)C[C@@H](O)CC(=O)O)[C@H]21 [Pravastatin] | 0 | 0.3
32 | O=C(O)c1ccc(-c2c[nH]c3ncc(-c4ccccc4)cc23)cc1C1CCCC1 | 1.4 | 0.5
33 | CC[C@]12C=CCN3CC[C@@]4(c5cc([C@@]6(C(=O)OC)C[C@@H]7C[C@@H](C(C)(F)F)CN(Cc8c6[nH]c6ccccc86)C7)c(OC)cc5N(C)[C@H]4[C@@](O)(C(=O)OC)[C@@H]1OC(C)=O)[C@@H]32 [Vinflunine] | 2.6 | 1.3
34 | COc1cccc2c1C(=O)c1c(O)c3c(c(O)c1C2=O)C[C@@](O)(/C(CO)=N/NC(=O)CCCCCN1C(=O)C=CC1=O)C[C@@H]3O[C@H]1C[C@H](N)[C@H](O)[C@H](C)O1 [Aldoxorubicin] | 5.8 | 5.4
35 | Oc1ccc2c(c1)CC[C@H](c1ccccc1)[C@@H]2c1ccc(OCCN2CCCC2)cc1 [Lasofoxifene] | 0.7 | 0.2
36 | Cc1c(Cn2c(C)nc3c(C(=O)O)cc(N4CCOCC4)cc32)cccc1C(F)(F)F | 0 | 0
37 | C=CC(=O)N1CCC(Oc2cc3c(Nc4ccc(Cl)c(Cl)c4F)ncnc3cc2OC)CC1 [Poziotinib] | 19.1 | 25.1
38 | CC(=O)OC[C@H]1O[C@@H]([S-])[C@H](OC(C)=O)[C@@H](OC(C)=O)[C@@H]1OC(C)=O.CCP(CC)CC.[Au+] [Auranofin] | 8.9 | 8.8
39 | COc1cccc(OCCCN)c1-c1cc(Nc2cnc(C#N)cn2)n[nH]1 [Prexasertib] | 28 | 23.6
40 | CCNc1nc(Nc2cc(F)c(C(=O)N3CCOCC3)cc2OC)ncc1C(F)(F)F [GNE-7915] | 0 | 0
